Data as given in US7078398B2, “Compositions and methods for treating or preventing convulsions or seizures” (Vela Pharamaceuticals, Inc., priority 2001, dated 2006).
Entries after “also recorded” stand apart in the source; their conditions may differ. Where two headings read alike, the source gives them in different places.

Tests used:
[1] = system: picrotoxin-induced seizures in male NSA mice; experiment: animal or person; assay type: in vivo; details: for anti-convulsant activity against picrotoxin-induced seizures (conclusion): NSA mice; for ED50 (95% confidence limit) / ED50: i.p. 15 minutes prior to picrotoxin 5 mg/kg s.c.; for ED50: Mus musculus
Experimental: Anticonvulsant activity against picrotoxin-induced seizures is considered evidence of clinical antiepileptic potential and reason for further evaluation of a test compound's anticonvulsant profile (Swinyard, E. A. et al., General principles: experimental detection, quantification and evaluation of anticonvulsants. In: Antiepileptic Drugs, D. M. Woodbury et al., eds. Raven Press, New York (1990) pp. 111–126).
Picrotoxin (5 mg/kg, Sigma Chem. Co., St. Louis, Mo., USA) was dissolved in saline and administered subcutaneously to induce seizures. In addition, picrotoxin alone was administered to seven animals as a control. All test drugs were dissolved in dimethylsulfoxide (DMSO).
After picrotoxin injection, mice were placed into a plexiglass cage for 30 minutes of observation. The appearance of seizures was defined as the presence of a single episode of clonic or tonic activity (including myoclonic jerks) during the 30 minute observation period. […] Animals were euthanized immediately after the observation period by CO2 inhalation. The ED50 (the dose of test compound at which half of the animals were protected against picrotoxin-induced seizures) values and their 95% confidence limits were calculated by the method of Litchfield and Wilcoxon (J. Pharmacol. Exp. Ther. 96:99–113 (1949)).

[2] = system: convulsions induced by the compound Ro 5-4864 in mice; details: 100 mg/kg; cited from earlier work
[3] = system: picrotoxin convulsions in Tuck No. 1 mice; details: cited from earlier work
[4] = system: pentylenetetrazole convulsions in Tuck No. 1 mice; details: cited from earlier work
[5] = system: convulsions induced by tryptamine in mice; details: Table 6 of Ito; cited from earlier work
[6] = Example 2, enantiomers of Example 1, 30 minute observation
[7] = Example 4, enantiomers of Example 3

Compound	anti-convulsant activity against picrotoxin-induced seizures (conclusion) ([1]; Example 2)	inhibition of picrotoxin-induced convulsions ([1]; Example 2, at either 20 or 50 mg/kg i.p.)	ED50 (95% confidence limit) [1, 6]	protection against picrotoxin-induced seizures ([1]; Example 4, 90 mg/kg)	protection against picrotoxin-induced seizures ([1]; Example 4, 128 mg/kg)	protection from picrotoxin-induced seizures, all doses tested ([1]; Example 4, 32-128 mg/kg)	anticonvulsant activity ([1]; Example 4, doses of 32 mg/kg and 64 mg/kg)	ED50 (95% confidence limit) [1, 7]	anti-convulsant activity (conclusion) ([1]; Example 4)	ED50 ([1]; read-out: ED50 (95% confidence limit), Example 2, enantiomers of Example 1, 30 minute observation)	ED50 ([1]; read-out: ED50 (95% confidence limit), Example 4, enantiomers of Example 3)	myoclonic jerks in treated mice [2]	number of mice having convulsions [2]	number or severity of convulsions ([3]; 10–50 mg/kg, 6 mg/kg of picrotoxin)	effect in combination with 3 mg/kg picrotoxin ([3]; 25–50 mg/kg)	effect as an anti-convulsant ([4]; 10–25 mg/kg, 60 mg/kg of pentylenetetrazole)	effect in combination with 30 mg/kg pentylenetetrazole ([4]; 25–50 mg/kg)	incidence of convulsions [5]	protection against picrotoxin-induced seizures ([1]; Example 2, 40 mg/kg i.p.)	anti-convulsant activity compared with the racemate ([1]; Example 4, highly pure S-tofisopam)
CC[C@H]1C(C)=NN=C(c2ccc(OC)c(OC)c2)c2cc(OC)c(OC)cc21 [R-tofisopam]	no anti-convulsant activity	did not inhibit	Inactive	no further increase in protection	no protection	< 50%	exhibits anticonvulsant activity	could not be calculated; also recorded: not calculable												
CCC1C(C)=NN=C(c2ccc(OC)c(OC)c2)c2cc(OC)c(OC)cc21 (racemic) [tofisopam, 1-(3,4-dimethoxy-phenyl)-4-methyl-5-ethyl-7,8-dimethoxy-5H-2,3-benzodiazepine]	intrinsic anti-convulsant activity								intrinsic anti-convulsant activity	37.8 mg/kg	51.4 mg/kg	all of the treated mice still experienced myoclonic jerks	reduced the number of mice having convulsions	no affect	proconvulsant activity	no effect	proconvulsant activity	no effect		
CC[C@@H]1C(C)=NN=C(c2ccc(OC)c(OC)c2)c2cc(OC)c(OC)cc21 [S-tofisopam]	intrinsic anti-convulsant activity		~35 (28–43) mg/kg					15.1 (7.6–30.1) mg/kg	intrinsic anti-convulsant activity										over 60%	significantly greater anti-convulsant activity
